Experimental findings from patent publication US20060100199A1, “Novel condensed imidazole derivatives” (priority 2003, published 2006) are described below.

In assay [1] the target is T1, Porcine kidney-derived DPP-IV (Sus scrofa, UniProt P22411).
T1 construct: Porcine kidney-derived DPP-IV was dissolved in a reaction buffer; from tissue; host or cells: porcine kidney
The assay is described as follows: DPPIV-inhibiting activity assay. The assay is classed as biochemical. The conditions noted are these: Gly-Pro-p-nitroanilide 0.33 mM, reaction time 20 minutes, absorbance at 405 nm. The procedure:
DPPIV-Inhibiting Activity Assay
Porcine kidney-derived DPP-IV was dissolved in a reaction buffer (50 mM Tris-HCl (pH 7.4)/0.1% BSA) at a concentration of 10 mg/ml. After 110 μl of this solution had been combined with 15 μl of an agent, the mixture was incubated at room temperature for 20 minutes. 25 μl of 2 mM Gly-Pro-p-nitroanilide was added (to a final concentration of 0.33 mM) to the solution to initiate the enzyme reaction. The reaction time was 20 minutes. 25 μl of 1N phosphoric acid solution was added to the reaction solution to quench the reaction.

For assay [2], the system named is male C57BL/6N mice. Description: Acceptable timing of administration in in vivo test. The settings on record: oral, simultaneously with vs one hour before glucose loading (2 g/kg); improvement factor for glucose tolerance compared. As to the method: Acceptable Timing of Administration in in vivo Test
The respective tests described below were carried out in combination with the in vivo test (administration before 0.5 hour) as described in Assay Example 2:
1. A test compound is administered simultaneously with glucose loading (2 g/kg) (the test compound is suspended in an aqueous solution of 0.5% methyl cellulose; the solution is combined with an equal volume of a glucose solution; and the mixture is administered orally at a dose of 10 ml/kg);
2. A test compound is administered one hour before glucose loading (2 g/kg) (the test compound suspended in an aqueous solution of 0.5% methyl cellulose is administered orally one hour before the oral administration of the glucose solution; each is given orally at a dose of 10 ml/kg).
The improvement factor for glucose tolerance is estimated in each test.

The test system of assay [3] is fasted male Wistar rats. The assay is described as follows: Effect on the blood glucose level of fasted male Wistar rats (in vivo test). The conditions noted are these: oral dose of 10-30 (mg/kg); 0.5, 1 and 3 hours after administration; compared with control group treated with the medium alone. As to the method: Purpose: Effect of a Test Compound on the Blood Glucose Level of Fasted Male Wistar Rats
Animal: male Wistar rats (purchased from Charles River Japan, Inc.)
A test compound was suspended in 0.5% methyl cellulose (MC) solution and administered orally at a dose of 5 mL/kg. The control group was treated with a 0.5% MC solution. The solution was administered orally at a dose of 5 mL/kg.
Immediately before administering a test compound or 0.5% MC solution, and 0.5, 1, and 3 hours after the administration, without anesthetic the caudal vein was lightly cut with a razor blade to let the blood out. 10 μL of blood was collected and combined with 140 μL of 0.6 M perchloric acid solution. The sample was centrifuged at 3000 g at 4° C. for 10 minutes and the resultant supernatant was assayed with the Glucose CII TEST WAKO (Wako Pure Chemical Industries).

For assay [4], the target named is T2, CYP1A2 (Homo sapiens, UniProt P05177).
T2 construct: purchased GENTEST Corp
T2 sequence (P05177 1-516): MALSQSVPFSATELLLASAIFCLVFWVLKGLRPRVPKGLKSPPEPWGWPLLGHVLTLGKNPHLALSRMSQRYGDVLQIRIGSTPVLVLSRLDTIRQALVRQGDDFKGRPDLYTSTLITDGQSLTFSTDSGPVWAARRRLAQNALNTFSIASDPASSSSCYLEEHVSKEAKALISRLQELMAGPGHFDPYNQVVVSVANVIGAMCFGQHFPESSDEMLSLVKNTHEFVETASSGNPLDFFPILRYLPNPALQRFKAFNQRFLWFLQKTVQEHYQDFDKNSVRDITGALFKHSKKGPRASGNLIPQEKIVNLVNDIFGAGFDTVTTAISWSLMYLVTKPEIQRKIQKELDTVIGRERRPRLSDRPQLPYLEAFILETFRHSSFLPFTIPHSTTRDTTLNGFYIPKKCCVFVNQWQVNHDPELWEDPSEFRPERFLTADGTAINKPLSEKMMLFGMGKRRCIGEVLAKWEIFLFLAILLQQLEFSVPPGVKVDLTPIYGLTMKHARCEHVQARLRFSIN
Description: Assessment for drug-metabolizing enzyme (cytochrome P450), CYP1A2. The assay is classed as in vitro ADME. The settings on record: recombinant P450, fluorescent substrate CEC. The procedure: (§1) <Assessment for Drug-Metabolizing Enzyme (Cytochrome P450)>
(§2) The experimental conditions used are shown below. The fluorescence intensity was determined using a plate reader (CYTO FLUOR Multi-Well Plate Reader Series 4000; PerSeptive Biosystems Corp.). The degree of inhibition was determined as a mean value from nine independent assays […] using as an index the intensity fluorescence emitted from the metabolite of the fluorescent substrate.
(§3) The substrates, metabolites, inhibitors, excitation wavelengths, and fluorescence wavelengths used in the assay are shown in Table 2.

Assay [5] addresses T3, CYP2C9 (Homo sapiens, UniProt P11712).
T3 construct: purchased GENTEST Corp
Description: Assessment for drug-metabolizing enzyme (cytochrome P450), CYP2C9. The assay is classed as in vitro ADME. The settings on record: recombinant P450, fluorescent substrate MFC. As to the method:
as §1, §2, §3

Assay [6] deals with T4, CYP2C19 (Homo sapiens, UniProt P33261).
T4 construct: purchased GENTEST Corp
T4 sequence (P33261 whole entry): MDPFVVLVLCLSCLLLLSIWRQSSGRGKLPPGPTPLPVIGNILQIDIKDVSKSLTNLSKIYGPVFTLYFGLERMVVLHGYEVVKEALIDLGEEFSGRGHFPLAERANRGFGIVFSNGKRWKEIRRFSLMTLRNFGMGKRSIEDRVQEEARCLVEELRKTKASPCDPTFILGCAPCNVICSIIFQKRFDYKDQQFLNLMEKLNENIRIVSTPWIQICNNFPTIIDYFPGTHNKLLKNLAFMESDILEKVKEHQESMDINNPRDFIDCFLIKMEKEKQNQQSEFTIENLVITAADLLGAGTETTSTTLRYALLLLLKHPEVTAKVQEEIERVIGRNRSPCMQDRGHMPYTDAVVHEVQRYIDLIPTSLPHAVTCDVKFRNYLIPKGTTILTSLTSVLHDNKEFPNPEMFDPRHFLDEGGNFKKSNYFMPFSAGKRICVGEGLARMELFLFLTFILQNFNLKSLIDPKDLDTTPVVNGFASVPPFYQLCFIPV
The assay is described as follows: Assessment for drug-metabolizing enzyme (cytochrome P450), CYP2C19. The assay is classed as in vitro ADME. The conditions noted are these: recombinant P450, fluorescent substrate CEC. As to the method:
as §1, §2, §3

Assay [7] addresses T5, CYP2D6 (Homo sapiens, UniProt P10635).
T5 construct: purchased GENTEST Corp
The assay is described as follows: Assessment for drug-metabolizing enzyme (cytochrome P450), CYP2D6. The assay is classed as in vitro ADME. The conditions noted are these: recombinant P450, fluorescent substrate AMMC. As to the method:
as §1, §2, §3

Assay [8] concerns the target T6, CYP3A4 (Homo sapiens, UniProt P08684).
T6 construct: purchased GENTEST Corp
Description: Assessment for drug-metabolizing enzyme (cytochrome P450), CYP3A4. The assay is classed as in vitro ADME. The conditions noted are these: recombinant P450, fluorescent substrate BFC. As to the method:
as §1, §2, §3

Assay [9] addresses T7, hERG channel (Homo sapiens, UniProt Q12809).
T7 construct: expressed in transfected cells; host or cells: HEK-293 cells (cell line established by the inventors)
Description: Suppression of hERG channel current. The conditions noted are these: HEK-293 cells with hERG channel gene (subtype 1), patch clamp, peak tail current at −50 mV. The assay is classed as cell-based. As to the method:
<Suppression of hERG Channel Current>
(1) Activity towards inhibiting the hERG channel current was evaluated according to the report Zhou, Z et al, Biophysical Journal, 74(1), 230-241 (1998).
(2) This experiment was carried out using HEK-293 cells into which the hERG channel gene (subtype 1) had been introduced (the cell line was established by the inventors).
(3) One to several days before the experiment, cells were plated on a poly-lysine-coated glass plate. The cells were cultured until the day of the experiment. At the start of the experiment, the cell-seeded glass plate was transferred into a bath for current measurement. The hERG channel current was measured by the voltage clamp method using the patch clamp technique. The current was measured using a current amplifier (Axon Instruments). The current was recorded and analyzed using pCLAMP software (Axon Instruments).
(4) The hERG channel current was induced by applying to the cells a depolarizing pulse from a holding potential of −80 mV to +20 mV for 5 seconds and to −50 mV for 4 seconds, at 20 second intervals. After the current became stable in a control solution, the cells were perfused with solutions containing various concentrations of test compounds.
(5) The amplitude of the hERG channel current was defined as the peak value of the tail current observed upon restoring the potential to −50 mV. The inhibiting effect of a test compound on the hERG channel current (IC50) was estimated based on the change in the peak value of tail current upon addition of the test compound at various concentrations. The peak value of tail current recorded for a normal solution was taken as 100%.
(In general: hERG is a cardiac potassium channel; its block is linked to QT prolongation.)

Where a name gives a salt, the structure may show the parent alone. Where only a bound is given, the exact number is not on record here.

T7 sequence (Q12809 whole entry): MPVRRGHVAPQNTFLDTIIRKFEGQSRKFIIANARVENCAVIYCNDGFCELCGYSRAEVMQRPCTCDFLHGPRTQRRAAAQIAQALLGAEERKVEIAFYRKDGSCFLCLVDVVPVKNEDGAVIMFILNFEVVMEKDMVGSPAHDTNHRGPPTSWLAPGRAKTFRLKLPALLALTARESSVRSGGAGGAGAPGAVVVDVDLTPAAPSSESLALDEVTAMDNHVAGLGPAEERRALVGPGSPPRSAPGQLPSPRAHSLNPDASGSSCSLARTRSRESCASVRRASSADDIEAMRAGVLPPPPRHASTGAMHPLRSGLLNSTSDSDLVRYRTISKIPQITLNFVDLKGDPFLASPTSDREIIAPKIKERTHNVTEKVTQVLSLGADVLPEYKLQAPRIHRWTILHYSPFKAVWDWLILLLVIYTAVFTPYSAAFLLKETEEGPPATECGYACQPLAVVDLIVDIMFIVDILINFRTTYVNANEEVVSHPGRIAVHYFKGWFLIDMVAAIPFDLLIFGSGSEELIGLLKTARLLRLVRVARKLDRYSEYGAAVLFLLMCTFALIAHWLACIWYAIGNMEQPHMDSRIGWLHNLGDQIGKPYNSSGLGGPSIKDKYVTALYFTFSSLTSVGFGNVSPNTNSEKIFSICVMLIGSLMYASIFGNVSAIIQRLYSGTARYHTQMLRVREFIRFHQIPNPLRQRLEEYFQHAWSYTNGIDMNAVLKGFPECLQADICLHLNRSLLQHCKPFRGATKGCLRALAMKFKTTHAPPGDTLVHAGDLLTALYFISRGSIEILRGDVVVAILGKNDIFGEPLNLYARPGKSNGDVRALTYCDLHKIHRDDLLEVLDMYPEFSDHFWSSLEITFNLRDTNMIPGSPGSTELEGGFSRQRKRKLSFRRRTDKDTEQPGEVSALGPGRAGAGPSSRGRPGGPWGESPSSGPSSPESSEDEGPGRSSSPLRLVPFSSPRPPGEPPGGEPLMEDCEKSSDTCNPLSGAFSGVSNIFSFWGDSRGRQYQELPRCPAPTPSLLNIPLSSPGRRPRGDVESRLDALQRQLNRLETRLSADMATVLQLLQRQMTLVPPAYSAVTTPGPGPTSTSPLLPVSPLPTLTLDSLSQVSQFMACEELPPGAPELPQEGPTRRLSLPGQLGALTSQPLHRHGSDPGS
T3 sequence (P11712 whole entry): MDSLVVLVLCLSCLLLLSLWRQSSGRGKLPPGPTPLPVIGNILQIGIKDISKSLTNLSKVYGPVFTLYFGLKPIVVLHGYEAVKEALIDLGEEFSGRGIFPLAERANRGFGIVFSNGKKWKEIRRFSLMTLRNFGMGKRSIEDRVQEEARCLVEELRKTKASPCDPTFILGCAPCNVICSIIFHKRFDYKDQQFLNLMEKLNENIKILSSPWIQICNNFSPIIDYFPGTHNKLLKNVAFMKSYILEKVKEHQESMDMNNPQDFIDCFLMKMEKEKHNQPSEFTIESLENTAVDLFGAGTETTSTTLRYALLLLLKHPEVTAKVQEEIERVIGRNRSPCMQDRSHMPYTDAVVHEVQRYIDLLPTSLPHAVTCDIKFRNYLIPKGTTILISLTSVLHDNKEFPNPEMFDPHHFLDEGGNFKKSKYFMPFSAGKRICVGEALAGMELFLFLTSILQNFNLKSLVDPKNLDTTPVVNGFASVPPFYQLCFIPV
T6 sequence (P08684 whole entry): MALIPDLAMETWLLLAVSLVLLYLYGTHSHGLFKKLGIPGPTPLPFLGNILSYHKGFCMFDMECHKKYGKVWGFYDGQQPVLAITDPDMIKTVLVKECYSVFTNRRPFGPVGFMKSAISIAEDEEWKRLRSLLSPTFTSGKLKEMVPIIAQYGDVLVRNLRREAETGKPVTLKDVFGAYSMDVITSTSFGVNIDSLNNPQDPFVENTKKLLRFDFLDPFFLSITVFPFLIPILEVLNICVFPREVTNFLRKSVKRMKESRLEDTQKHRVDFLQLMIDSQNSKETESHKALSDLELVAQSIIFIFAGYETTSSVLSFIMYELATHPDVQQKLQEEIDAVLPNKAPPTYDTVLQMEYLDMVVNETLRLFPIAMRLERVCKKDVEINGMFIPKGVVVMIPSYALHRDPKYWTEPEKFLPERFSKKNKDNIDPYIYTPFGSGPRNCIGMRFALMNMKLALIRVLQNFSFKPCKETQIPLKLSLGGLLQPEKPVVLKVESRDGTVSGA
T1 sequence (P22411 whole entry): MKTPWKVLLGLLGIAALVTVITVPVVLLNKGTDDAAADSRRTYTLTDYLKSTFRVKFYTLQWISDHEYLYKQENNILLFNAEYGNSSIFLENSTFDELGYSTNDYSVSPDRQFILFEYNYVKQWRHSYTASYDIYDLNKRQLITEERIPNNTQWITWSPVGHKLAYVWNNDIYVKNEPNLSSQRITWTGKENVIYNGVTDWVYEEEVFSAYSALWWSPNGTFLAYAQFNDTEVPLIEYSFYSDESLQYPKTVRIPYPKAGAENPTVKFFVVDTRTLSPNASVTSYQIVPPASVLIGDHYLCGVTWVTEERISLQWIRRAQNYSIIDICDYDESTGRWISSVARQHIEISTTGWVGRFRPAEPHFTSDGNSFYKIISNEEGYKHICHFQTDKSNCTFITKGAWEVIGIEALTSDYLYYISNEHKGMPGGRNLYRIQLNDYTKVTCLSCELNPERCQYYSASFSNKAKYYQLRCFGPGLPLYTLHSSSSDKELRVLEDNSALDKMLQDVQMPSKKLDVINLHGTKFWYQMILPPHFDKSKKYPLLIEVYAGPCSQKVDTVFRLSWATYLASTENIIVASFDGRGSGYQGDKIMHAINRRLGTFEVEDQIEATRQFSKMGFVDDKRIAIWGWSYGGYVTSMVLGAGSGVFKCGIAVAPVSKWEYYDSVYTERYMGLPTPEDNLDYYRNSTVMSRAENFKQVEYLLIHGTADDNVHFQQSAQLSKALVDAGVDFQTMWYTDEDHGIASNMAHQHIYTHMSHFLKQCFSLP
T5 sequence (P10635 whole entry): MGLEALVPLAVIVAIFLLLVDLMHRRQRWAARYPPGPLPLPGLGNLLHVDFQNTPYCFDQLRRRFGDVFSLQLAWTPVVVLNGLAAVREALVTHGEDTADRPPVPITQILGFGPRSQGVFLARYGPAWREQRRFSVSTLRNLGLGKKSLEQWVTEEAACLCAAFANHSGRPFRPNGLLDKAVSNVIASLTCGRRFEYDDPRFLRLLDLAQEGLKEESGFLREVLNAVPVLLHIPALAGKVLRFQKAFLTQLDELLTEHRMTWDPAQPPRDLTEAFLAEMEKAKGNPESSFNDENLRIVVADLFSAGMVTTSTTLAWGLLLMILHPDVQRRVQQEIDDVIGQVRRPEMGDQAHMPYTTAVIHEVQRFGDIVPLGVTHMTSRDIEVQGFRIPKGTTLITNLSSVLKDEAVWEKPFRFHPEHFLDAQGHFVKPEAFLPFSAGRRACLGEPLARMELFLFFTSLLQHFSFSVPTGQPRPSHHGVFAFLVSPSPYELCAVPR

The compound `CC#CCn1c(N2CCNCC2)nc2nc(Oc3ccccc3CC(=O)OC)n(C)c(=O)c21` [Example 4, Methyl 2-[7-(2-butynyl)-1-methyl-6-oxo-8-(piperazin-1-yl)-6,7-dihydro-1H-purin-2-yloxy]phenylacetate trifluoroacetate] showed an IC50 in assay [1] of 211 nM.
`CC#CCn1c(N2CCNCC2)nc2nc(C#N)n(C)c(=O)c21.O=C(O)C(F)(F)F` [Example 82, 7-(2-Butynyl)-2-cyano-1-methyl-8-(piperazin-1-yl)-1,7-dihydropurin-6-one trifluoroacetate]: the “range of acceptable timing of administration” value (“range” for short) in assay [2] is reported as “sufficiently wide ranges of acceptable timing of administration”. The “change in the blood glucose level” value in [3] is on record as “no significant change”. Further, the 50% inhibitory concentration (IC50) in assay [4] was at least 10 µM; in assay [5], at least 10 µM; in assay [6], at least 10 µM; in assay [7], at least 10 µM; in assay [8], at least 10 µM; in [9] it was at least 30 µM.
In assay [1], `CC#CCn1c(N2CCNCC2)nc2nc(C(N)=O)n(C)c(=O)c21` [Example 83, 7-(2-Butynyl)-1-methyl-6-oxo-8-(piperazin-1-yl)-6,7-dihydro-1H-purine-2-carboxamide] displayed an IC50 of 27.4 nM.
As for `CC#CCn1c(N2CCNCC2)nc2cnn(C)c(=O)c21` [Example 119, 3-(2-Butynyl)-5-methyl-2-(piperazin-1-yl)-3,5-dihydroimidazo[4,5-d]pyridazin-4-one], the “range” value in [2] is “sufficiently wide ranges of acceptable timing of administration”. The “change in the blood glucose level” value in [3] is on record as “no significant change”. The IC50 in assay [4] is at least 10 µM; in assay [5], at least 10 µM; in assay [6], at least 10 µM; in assay [7] it was at least 10 µM; in assay [8], at least 10 µM; in [9] it was at least 30 µM.
Turning to `CC#CCn1c(N2CCCC(N)C2)nc2cnn(C)c(=O)c21.O=C(O)C(F)(F)F` (centres unmarked) [Example 120, 2-(3-Aminopiperidin-1-yl)-3-(2-butynyl)-5-methyl-3,5-dihydroimidazo[4,5-d]pyridazin-4-one trifluoroacetate], in [2], the “range” value is “sufficiently wide ranges of acceptable timing of administration”. Further, the “change in the blood glucose level” value in assay [3] is recorded as “no significant change”. The IC50 in [4] was at least 10 µM; in [5], at least 10 µM; in assay [6], at least 10 µM; in assay [7], at least 10 µM; in [8], at least 10 µM; in assay [9] it was at least 30 µM.
`CC#CCn1c(N2CCNCC2)nc2nc(Oc3ccccc3C(N)=O)n(C)c(=O)c21` [Example 122, 2-[7-(2-Butynyl)-1-methyl-6-oxo-8-(piperazin-1-yl)-6,7-dihydro-1H-purin-2-yloxy]benzamide]: the IC50 in assay [1] is 15.3 nM; in assay [4] it was at least 10 µM; in [5], at least 10 µM; in assay [6] it was at least 10 µM; in assay [7], at least 10 µM; in [8], at least 10 µM. The compound also yielded an IC50 in assay [9] of at least 30 µM. Besides, the “range” value in assay [2] was “sufficiently wide ranges of acceptable timing of administration”. Further, the “change in the blood glucose level” value in assay [3] is given as “no significant change”.
On to `CC#CCn1c(N2CCNCC2)nc2nc(C#N)n(Cc3ccccc3C#N)c(=O)c21.Cl` [Example 229, 7-(2-Butynyl)-1-(2-cyanobenzyl)-6-oxo-8-(piperazin-1-yl)-6,7-dihydro-1H-purine-2-carbonitrile hydrochloride], for which the “range” value in assay [2] was “sufficiently wide ranges of acceptable timing of administration”. In addition, the “change in the blood glucose level” value in assay [3] is reported as “no significant change”. For the same compound, the IC50 is at least 10 µM in assay [4]; at least 10 µM in assay [5]; at least 10 µM in [6]; at least 10 µM in [7]; at least 10 µM in [8]; at least 30 µM in assay [9].
For the compound `CC#CCn1c(N2CCNCC2)nc2nc(Oc3ccccc3C(N)=O)n(Cc3ccc(C#N)cc3)c(=O)c21` [Example 235, 2-[7-(2-Butynyl)-1-(4-cyanobenzyl)-6-oxo-8-(piperazin-1-yl)-6,7-dihydro-1H-purin-2-yloxy]benzamide trifluoroacetate], inhibition in assay [1] was half-maximal at 1.44 nM (IC50).
Same read-out and setting: the figure for `CC#CCn1c(N2CCNCC2)nc2nc(Oc3ccccc3C(N)=O)n(Cc3cccc(C#N)c3)c(=O)c21` [Example 238, 2-[7-(2-Butynyl)-1-(3-cyanobenzyl)-6-oxo-8-(piperazin-1-yl)-6,7-dihydro-1H-purin-2-yloxy]benzamide trifluoroacetate] is 1.19 nM.
With `CC#CCn1c(N2CCNCC2)nc2cnn(Cc3ccccc3C#N)c(=O)c21.O=C(O)C(F)(F)F` [Example 267, 2-[3-(2-Butynyl)-4-oxo-2-(piperazin-1-yl)-3,4-dihydroimidazo[4,5-d]pyridazin-5-ylmethyl]benzonitrile trifluoroacetate], the “range” value in [2] was “sufficiently wide ranges of acceptable timing of administration”. Also, in assay [3], the “change in the blood glucose level” value is reported as “no significant change”. In addition, the IC50 in assay [4] is at least 10 µM; in assay [5], at least 10 µM; in [6], at least 10 µM; in assay [7], at least 10 µM; in assay [8], at least 10 µM; in assay [9] it was at least 30 µM.

What is called IC50 is the concentration at which inhibition is half-maximal.
